# Key:
# Homo sapiens = organism: Homo sapiens; assay: (§1) Agonist selectivity for orexin receptor 1 versus orexin receptor 2; format: functional
# [1] = as §1; format: functional, Homo sapiens
# [2] = target: T1, Orexin/Hypocretin receptor type 1 (Homo sapiens) (UniProt O43613); assay: Agonist activity against human orexin 1 receptor; EC50; nM; format: functional
# T1 sequence (whole entry): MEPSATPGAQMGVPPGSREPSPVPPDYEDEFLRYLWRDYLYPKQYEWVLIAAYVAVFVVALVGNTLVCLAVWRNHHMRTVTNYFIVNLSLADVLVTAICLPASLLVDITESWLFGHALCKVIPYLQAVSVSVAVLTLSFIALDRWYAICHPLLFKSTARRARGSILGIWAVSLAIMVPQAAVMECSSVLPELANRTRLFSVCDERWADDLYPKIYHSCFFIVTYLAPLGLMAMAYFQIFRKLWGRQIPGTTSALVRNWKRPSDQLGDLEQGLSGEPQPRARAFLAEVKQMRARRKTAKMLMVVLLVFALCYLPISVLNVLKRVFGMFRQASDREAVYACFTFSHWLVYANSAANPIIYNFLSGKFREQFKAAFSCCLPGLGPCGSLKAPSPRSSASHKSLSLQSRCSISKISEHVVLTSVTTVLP
# [3] = target: T2, Orexin receptor type 2 (Homo sapiens) (UniProt O43614); assay: (§2) Agonist activity against human orexin 2 receptor; EC50; nM; format: functional
# T2 sequence (whole entry): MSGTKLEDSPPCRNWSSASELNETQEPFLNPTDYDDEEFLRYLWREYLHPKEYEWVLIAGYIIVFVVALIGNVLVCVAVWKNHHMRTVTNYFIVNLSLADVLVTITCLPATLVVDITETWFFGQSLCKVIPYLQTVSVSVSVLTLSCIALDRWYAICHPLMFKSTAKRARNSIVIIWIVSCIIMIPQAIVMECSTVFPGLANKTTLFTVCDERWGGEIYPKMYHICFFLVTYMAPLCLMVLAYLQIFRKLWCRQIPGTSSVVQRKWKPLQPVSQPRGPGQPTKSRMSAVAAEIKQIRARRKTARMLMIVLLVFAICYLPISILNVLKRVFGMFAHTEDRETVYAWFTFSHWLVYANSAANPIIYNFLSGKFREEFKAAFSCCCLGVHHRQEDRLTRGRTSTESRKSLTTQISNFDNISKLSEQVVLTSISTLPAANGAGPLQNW
# Orexin receptor type 2 = target: T3, Orexin receptor type 2 (Homo sapiens, UniProt O43614); assay: as §2; format: functional
# T3 sequence (O43614 whole entry): T2 sequence (whole entry)
selectivity (Homo sapiens),selectivity [1],EC50 [2] [nM],EC50 [3] [nM],EC50 (Orexin receptor type 2) [nM],Compound
10,10,0.83,0.081,,CC[C@H](C)[C@H](NC(=O)[C@H](CC(C)C)NC(=O)[C@@H](NC(=O)[C@@H](N)CCSC)[C@@H](C)O)C(=O)NCC(=O)N[C@@H](C)C(=O)N[C@@H](C)C(=O)N[C@@H](Cc1c[nH]cn1)C(=O)N[C@@H](CC(N)=O)C(=O)NCC(=O)N[C@@H](CO)C(=O)N[C@@H](C)C(=O)N[C@@H](CCC(N)=O)C(=O)N[C@@H](CC(C)C)C(=O)N[C@@H](CC(C)C)C(=O)N[C@@H](CCCN=C(N)N)C(=O)N[C@@H](CCC(N)=O)C(=O)N[C@@H](CC(C)C)C(=O)N[C@@H](CCCN=C(N)N)C(=O)NCC(=O)N[C@@H](CCC(N)=O)C(=O)N[C@@H](CC(C)C)C(=O)NCC(=O)N1CCC[C@H]1C(=O)N1CCC[C@H]1C(=O)NCC(=O)N[C@@H](CO)C(=O)N[C@@H](CCCN=C(N)N)C(N)=O [OREXIN B]
400,,52,0.13,,CC[C@H](C)[C@H](NC(=O)[C@H](CC(C)C)NC(=O)[C@@H](NC(=O)[C@@H](N)CCSC)[C@@H](C)O)C(=O)NCC(=O)N[C@@H](C)C(=O)N[C@@H](C)C(=O)N[C@@H](Cc1c[nH]cn1)C(=O)N[C@@H](CC(N)=O)C(=O)NCC(=O)N[C@@H](CO)C(=O)N[C@@H](C)C(=O)N[C@@H](CCC(N)=O)C(=O)N[C@H](CC(C)C)C(=O)N[C@@H](CC(C)C)C(=O)N[C@@H](CCCN=C(N)N)C(=O)N[C@@H](CCC(N)=O)C(=O)N[C@@H](C)C(=O)N[C@@H](CCCN=C(N)N)C(=O)NCC(=O)N[C@@H](CCC(N)=O)C(=O)N[C@@H](CC(C)C)C(=O)NCC(=O)N1CCC[C@H]1C(=O)N1CCC[C@H]1C(=O)NCC(=O)N[C@@H](CO)C(=O)N[C@@H](CCCN=C(N)N)C(N)=O
,,,,2.3,H-MTLIGAAHAGSAQLLRQLRGQLGPPGSR-NH2
,,,,0.15,CC[C@H](C)[C@H](NC(=O)[C@H](CC(C)C)NC(=O)[C@@H](NC(=O)[C@@H](N)CCSC)[C@@H](C)O)C(=O)NCC(=O)N[C@@H](C)C(=O)N[C@@H](C)C(=O)N[C@@H](Cc1c[nH]cn1)C(=O)N[C@@H](CC(N)=O)C(=O)NCC(=O)N[C@@H](CO)C(=O)N[C@@H](C)C(=O)N[C@@H](CCC(N)=O)C(=O)N[C@@H](CC(C)C)C(=O)N[C@@H](CC(C)C)C(=O)N[C@@H](CCCN=C(N)N)C(=O)N[C@@H](CCC(N)=O)C(=O)N[C@@H](CC(C)C)C(=O)N[C@@H](CCCN=C(N)N)C(=O)NCC(=O)N[C@@H](CCC(N)=O)C(=O)N[C@@H](CC(C)C)C(=O)NCC(=O)N1CCC[C@H]1C(=O)N1CCC[C@H]1C(=O)NCC(=O)N[C@H](CO)C(=O)N[C@@H](CCCN=C(N)N)C(N)=O

# Further lines, the compound ahead of its results:
Compound,selectivity (Homo sapiens),selectivity [1],EC50 [2] [nM],EC50 [3] [nM],EC50 (Orexin receptor type 2) [nM]
CC[C@H](C)[C@H](NC(=O)[C@H](CC(C)C)NC(=O)[C@@H](NC(=O)[C@@H](N)CCSC)[C@@H](C)O)C(=O)NCC(=O)N[C@@H](C)C(=O)N[C@@H](C)C(=O)N[C@@H](Cc1c[nH]cn1)C(=O)N[C@@H](CC(N)=O)C(=O)NCC(=O)N[C@@H](CO)C(=O)N[C@@H](C)C(=O)N[C@@H](CCC(N)=O)C(=O)N[C@@H](CC(C)C)C(=O)N[C@H](CC(C)C)C(=O)N[C@@H](CCCN=C(N)N)C(=O)N[C@@H](CCC(N)=O)C(=O)N[C@@H](C)C(=O)N[C@@H](CCCN=C(N)N)C(=O)NCC(=O)N[C@@H](CCC(N)=O)C(=O)N[C@@H](CC(C)C)C(=O)NCC(=O)N1CCC[C@H]1C(=O)N1CCC[C@H]1C(=O)NCC(=O)N[C@@H](CO)C(=O)N[C@@H](CCCN=C(N)N)C(N)=O,140,,270,1.9,
CC[C@H](C)[C@H](NC(=O)[C@H](CC(C)C)NC(=O)[C@@H](NC(=O)[C@@H](N)CCSC)[C@@H](C)O)C(=O)NCC(=O)N[C@@H](C)C(=O)N[C@@H](C)C(=O)N[C@@H](Cc1c[nH]cn1)C(=O)N[C@@H](CC(N)=O)C(=O)NCC(=O)N[C@@H](CO)C(=O)N[C@@H](C)C(=O)N[C@@H](CCC(N)=O)C(=O)N[C@H](CC(C)C)C(=O)N[C@@H](CC(C)C)C(=O)N[C@@H](CCCN=C(N)N)C(=O)N[C@@H](CCC(N)=O)C(=O)N[C@@H](CC(C)C)C(=O)N[C@@H](CCCN=C(N)N)C(=O)NCC(=O)N[C@@H](CCC(N)=O)C(=O)N[C@@H](CC(C)C)C(=O)NCC(=O)N1CCC[C@H]1C(=O)N1CCC[C@H]1C(=O)NCC(=O)N[C@@H](CO)C(=O)N[C@@H](CCCN=C(N)N)C(N)=O,,,,,0.052
CC[C@H](C)[C@H](NC(=O)[C@H](CC(C)C)NC(=O)[C@@H](NC(=O)[C@@H](N)CCSC)[C@@H](C)O)C(=O)NCC(=O)N[C@@H](C)C(=O)N[C@@H](C)C(=O)N[C@@H](Cc1c[nH]cn1)C(=O)N[C@@H](CC(N)=O)C(=O)NCC(=O)N[C@@H](CO)C(=O)N[C@@H](C)C(=O)N[C@@H](CCC(N)=O)C(=O)N[C@@H](CC(C)C)C(=O)N[C@@H](CC(C)C)C(=O)N[C@@H](CCCN=C(N)N)C(=O)N[C@@H](CCC(N)=O)C(=O)N[C@@H](CC(C)C)C(=O)N[C@@H](CCCN=C(N)N)C(=O)NCC(=O)N[C@@H](CCC(N)=O)C(=O)N[C@@H](CC(C)C)C(=O)NCC(=O)N1CCC[C@H]1C(=O)N1CCC[C@@H]1C(=O)NCC(=O)N[C@@H](CO)C(=O)N[C@@H](CCCN=C(N)N)C(N)=O,,,,,0.15

# Source: ChEMBL document CHEMBL1145783, “Development of an orexin-2 receptor selective agonist, [Ala(11), D-Leu(15)]orexin-B” (Bioorg Med Chem Lett, 2003)
